Legend:
Type in all cases: functional, organism-based
[1] = system: rhinovirus A1B; test: Inhibitory activity against rhinovirus type 1B; conditions: Rhinovirus A
[2] = system: rhinovirus A2; test: Evaluated for inhibitory activity against rhinovirus type 2; conditions: Rhinovirus A
[3] = system: rhinovirus B4; test: Evaluated for inhibitory activity against rhinovirus type 4; conditions: Rhinovirus B
[4] = system: rhinovirus B5; test: Evaluated for inhibitory activity against rhinovirus type 5; conditions: Rhinovirus B

| IC50 [1] [µM] | IC50 [2] [µM] | IC50 [3] [µM] | IC50 [4] [µM] | Compound |
| --- | --- | --- | --- | --- |
| 2 | 3.6 | 8.3 |  | CC(C)Oc1cccc(Nc2nc(Cl)nc3c2ncn3Cc2ccccc2)c1 |
| 1 | 3.9 | 6.4 | > 8 | Cc1ccc(Cn2cnc3c(Nc4ccccc4)nc(Cl)nc32)cc1 |
| > 10 |  |  |  | CCOC(=O)c1cccc(Nc2nc(Cl)nc3c2ncn3Cc2ccccc2)c1 |
| 0.3 | 1.2 |  |  | Cc1ccc(Nc2nc(Cl)nc3c2ncn3Cc2ccccc2)cc1 |
| > 40 |  |  |  | CN(C)c1ccc(Nc2nc(Cl)nc3c2ncn3Cc2ccccc2)cc1 |
| 1.2 | 5.6 | 5.5 | 5.6 | Fc1cccc(Nc2nc(Cl)nc3c2ncn3Cc2ccccc2)c1 |
| > 40 |  |  |  | CCCCOc1ccc(Nc2nc(Cl)nc3c2ncn3Cc2ccccc2)cc1 |
| 0.14 | 11 | 8.7 |  | CSc1ccc(Nc2nc(Cl)nc3c2ncn3Cc2ccccc2)cc1 |
| 0.3 | 16.6 | 85 | 200 | FC(F)(F)c1ccc(Nc2nc(Cl)nc3c2ncn3Cc2ccccc2)cc1 |
| 2.4 | 3.1 | 8.4 | 8.5 | CN(C)c1cccc(Nc2nc(Cl)nc3c2ncn3Cc2ccccc2)c1 |
| 0.03 |  |  |  | Cc1ccc(Cn2cnc3c(N(C)C)nc(C(F)(F)F)nc32)cc1 |
| > 10 |  |  |  | Nc1cccc(Nc2nc(Cl)nc3c2ncn3Cc2ccccc2)c1 |
| 1.3 |  |  |  | CC(=O)Nc1cccc(Nc2nc(Cl)nc3c2ncn3Cc2ccccc2)c1 |
| > 10 |  |  |  | CCOC(=O)c1ccc(Nc2nc(Cl)nc3c2ncn3Cc2ccccc2)cc1 |
| > 40 |  |  |  | CC(C)Oc1ccc(Nc2nc(Cl)nc3c2ncn3Cc2ccccc2)cc1 |
| > 10 |  |  |  | CCCCc1ccc(Nc2nc(Cl)nc3c2ncn3Cc2ccccc2)cc1 |
| 1.9 | 2.7 | 5.1 | > 8 | Cc1ccc(Cn2cnc3c(N(C)c4ccccc4)nc(C(F)(F)F)nc32)cc1 |
| 2 | 10.5 | 4.5 |  | CS(=O)(=O)c1ccc(Nc2nc(Cl)nc3c2ncn3Cc2ccccc2)cc1 |
| 0.3 | 2.2 | 7.8 | 9.5 | Clc1nc(Nc2ccc(Br)cc2)c2ncn(Cc3ccccc3)c2n1 |
| 1.28 | 6.2 | 6.8 | 10 | Fc1ccc(Nc2nc(Cl)nc3c2ncn3Cc2ccccc2)cc1 |
| 22 |  |  |  | CCCCOc1cccc(Nc2nc(Cl)nc3c2ncn3Cc2ccccc2)c1 |
| > 40 |  |  |  | CS(=O)(=O)c1cccc(Nc2nc(Cl)nc3c2ncn3Cc2ccccc2)c1 |
| > 20 |  |  |  | Nc1ccc(Nc2nc(Cl)nc3c2ncn3Cc2ccccc2)cc1 |
| 1.65 | 8.3 | 14.2 | 16.3 | Clc1nc(Nc2ccccc2)c2ncn(Cc3ccccc3)c2n1 |
| > 10 |  |  |  | O=[N+]([O-])c1cccc(Nc2nc(Cl)nc3c2ncn3Cc2ccccc2)c1 |
| 9.4 |  |  |  | N#Cc1ccc(Nc2nc(Cl)nc3c2ncn3Cc2ccccc2)cc1 |
| > 20 |  |  |  | CC(=O)Nc1ccc(Nc2nc(Cl)nc3c2ncn3Cc2ccccc2)cc1 |
| 2.9 | 2.8 | 5.7 | 7.6 | Clc1nc(Nc2cccc(Br)c2)c2ncn(Cc3ccccc3)c2n1 |
